Assay results taken from patent publication US20220111065A1, “MOLECULAR ADJUVANT” (ADC THERAPEUTICS SA, priority 2018, published 2022).

Tests used:
[1] = tested on: CD25-positive acute myeloid leukemia (AML); test: Phase 1 study of ADCx25, weekly fractionated dosing, in relapsed or refractory AML/ALL (Example 2); format: in vivo, human
Excerpt: Patients with relapsed or refractory cluster of differentiation 25 (CD25)-positive acute myeloid leukemia (AML) or CD25-positive acute lymphoblastic leukemia (ALL) who have failed, or are intolerant to, any established therapy known to provide clinical benefit at current state of disease. Patients with myelodysplastic syndrome who have received treatment with hypomethylating agents and subsequently present with CD25+ AML and who failed, or are ineligible for standard induction therapy, are eligible for treatment with ADCx25.
Assessment of response to treatment with ADCX25 will be based on bone marrow samples (aspirate or biopsy, if aspirate unattainable). The activity of ADCX25 will be evaluated based on the Investigator's evaluation of the patient's response to ADCX25 as CR, CRi, PR, PD, or NR as defined herein.
ADCX25 is a sterile formulation containing PBD-conjugated HuMax®-TAC (DAR≥1), HuMax®-TAC (DAR=0), and SG3249. It is provided pre-formulated in 10-mL glass vials containing approximately 30 mg of ADCX25 per vial (deliverable volume 5.4 mL at 6 mg/mL). The appropriate quantity of ADCX25 will be diluted in 50 mL of 5% dextrose in water (D5W).
Patients will receive a 1-hour intravenous (IV) infusion of ADCX25 on Day 1 of Cycle 1. […]

[2] = tested on: MC38 cells; test: Re-challenge of tumor-free survivors from MC38 efficacy study (Example 3); format: in vivo, mouse; conditions: complete responders of Example 1 re-implanted with MC38 cells in contralateral flank; no treatment in re-challenge (FIG. 4)
Procedure: On Day 1 of the re-challenge study, 5×10^5 MC38 cells (0.1 mL suspension) were subcutaneously implanted into the left flank (contralateral to the original cell implant) and tumor growth was monitored. No ADC or anti-PD-1 treatment was administered in the rechallenge study.
Animal handling and tumour measurement was as in Example 1 unless otherwise stated.

[3] = tested on: CT26 cells; test: Re-challenge of tumor-free survivors from CT26 efficacy study (Example 5); format: in vivo, mouse; conditions: complete responders of Example 4 re-implanted with CT26 cells in contralateral flank; no treatment in re-challenge (FIG. 7)
Procedure: On Day 1 of the re-challenge study […] CT26 cells (0.1 mL suspension) were subcutaneously implanted into the left flank (contralateral to the cell implant of example 4) and tumor growth was monitored and measured as described in example 4.
No treatment was administered in the re-challenge study.

[4] = tested on: MC38 cells; test: MC38 efficacy with CD8+ T-cell depletion by anti-CD8 (Example 6); format: in vivo, mouse; conditions: CD8+ T-cells depleted with anti-CD8-2.43 antibody (FIG. 8, FIG. 9)
Excerpt: Treatment may cause partial regression (PR) or complete regression (CR) of the tumor in an animal.
In a PR response, the tumor volume is 50% or less of its Day 1 volume for three consecutive measurements during the course of the study, and equal to or greater than 13.5 mm^3 for one or more of these three measurements.
In a CR response, the tumor volume is less than 13.5 mm^3 for three consecutive measurements during the study.
Any animal with a CR response at the end of the study was additionally classified as a tumor-free survivor (TFS).
Animals were scored only once during the study for a PR or CR event and only as CR if both PR and CR criteria were satisfied.
The Coefficient of Drug Interaction (CDI) (11) in were assessed for subadditive, additive, or supra-additive (synergism) properties on Day 21, the last day all evaluable animals remained on study.
The CDI was determined according to the equation below:
Where, • x=mean tumor volume • AB=xAB/xC • A=xA/xC • B=xB/xC […]
On the day of implant 5×10^5 MC38 cells (0.1 mL suspension) were subcutaneously implanted into the right flank of each test animal. Tumors were monitored as their volumes approached the target range of 80-120 mm^3. […]
Tumors were measured twice per week until the study was ended (day29 for anti-CD8+surADCx25 and anti-CD8+anti-PD1+surADCx25 groups; day 44 for surADCx25 alone and surADCx25+anti-CD8). […]

[5] = tested on: selected advanced solid tumors; test: Phase 1b dose-escalation study of Camidanlumab Tesirine in advanced solid tumors (Example 9); format: in vivo, human
Excerpt: This is a report of preliminary data from a Phase 1b trial of Camidanlumab Tesirine (NCT03621982; ADC Therapeutics) in patients (pt) with selected advanced solid tumors […] (AST) who have failed existing therapies.
This multicenter, open-label, dose-escalation (part 1), and dose-expansion (part 2) study is currently enrolling subjects (aged≥18 years) with selected AST. The primary objective is to evaluate the safety and tolerability and to identify the recommended dose. Secondary objectives are to assess preliminary antitumor activity, pharmacokinetics (PK), and immunogenicity.
Subjects receive 1-hour intravenous infusions of Camidanlumab Tesirine every 3 weeks (Q3W) from a starting dose cohort of 20 μg/kg. Subsequent cohorts are enrolled at escalating doses according to a 3+3 design.

[6] = tested on: advanced melanoma; conditions: phase III trials; cited from earlier work
[7] = 6 subjects, 20-30 μg/kg Q3W i.v., preliminary

With “ADCx25: human antibody against human CD25 (AB12, HuMax-TAC) attached to a pyrrolobenzodiazepine (PBD) warhead via a cleavable linker” the “clinical response of AML” value ([1]; 2 subjects with AML who had previously received bone marrow stem cell transfers) was “complete remission”, the response to treatment ([1]; Patient 1: relapsed AML FAB M0, 30 ug/kg QW cohort, prior allogenic transplant, after 5 cycles) was “CRi” and the “development of new tumors on re-challenge” value [2] was “did not develop new tumors”. The “development of new tumors on re-challenge” value [3] was “did not develop new tumors”, the “anti-tumor activity when CD8+ T-cells are depleted” value [4] was “dependent on CD8+ T-cells” and the “number of subjects with stable disease” value ([5]; 20 μg/kg Q3W) was 2. The “number of subjects with stable disease” value ([5]; 30 μg/kg Q3W, reported a few days after the cutoff date) was 2, the dose-limiting toxicities ([5]; 6 subjects, 20-30 μg/kg Q3W i.v., 21-day reporting period, preliminary, as of Apr. 16, 2019) was “No dose-limiting toxicities” and the “best response recorded (response evaluation criteria in solid tumors)” value [5, 7] was “Stable disease”. For the same molecule, the “most common (≥3 pts) adverse events regardless of relationship” value [5, 7] was “fatigue and nausea” and the “related high-grade AEs or serious AEs” value [5, 7] was “no reported grade ?3 AEs or serious AEs considered related”.

B1: tremelimumab: anti-CTLA4 antibody (antibody)
VH: GVVQPGRSLRLSCAASGFTFSSYGMHWVRQAPGKGLEWVAVIWYDGSNKYYADSVKGRFTISRDNSKNTLYLQMNSLRAEDTAVYYCARDPRGATLYYYYYGMDVWGQGTTVTVSSASTKGPSVFPLAPCSRSTSESTAALGCLVKDYFPEPVTVSWNSGALTSGVH
VL: PSSLSASVGDRVTITCRASQSINSYLDWYQQKPGKAPKLLIYAASSLQSGVPSRFSGSGSGTDFTLTISSLQPEDFATYYCQQYYSTPFTFGPGTKVEIKRTVAAPSVFIFPPSDEQLKSGTASVVCLLNNFYPREAKV
modifications: Tremelimumab VH; Tremelimumab VL
notes: anti-CTLA4 antibody
In the case of B1, the “overall survival compared to the standard of care (temozolomide or dacarbazine)” value [6] is given as “did not significantly increase”.
